Test results taken from US6737383B1, “Herbicidal oxadiazolidines” (priority 1999, dated 2004).

Legend:
cocklebur = test: Test B pre/postemergence cocklebur; assay type: in vivo, Xanthium strumarium
How it was run: (§1)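 Test chemicals in a non-phytotoxic solvent mixture with surfactant were sprayed preemergence onto planted seeds and postemergence onto plants 2 to 18 cm tall (1- to 4-leaf stage). After twelve to sixteen days in a greenhouse, injury was visually rated against untreated controls from 0 (no effect) to 10 (complete control).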

rice = test: Test B flood test rice; assay type: in vivo, Oryza sativa
How it was run: (§2)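 Plants were grown to the 2-leaf stage before treatment with test chemical, then held in a greenhouse for twelve to sixteen days. Injury was visually rated against untreated controls on a 0–10 scale, where 0 is no effect and 10 is complete control.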

smallflower flatsedge = test: Test B flood test smallflower flatsedge; assay type: in vivo, Cyperus difformis
How it was run: as §2

sugar beet = test: Test B pre/postemergence sugar beet; assay type: in vivo, Beta vulgaris
How it was run: as §1

duck salad = test: Test B flood test duck salad; assay type: in vivo, Heteranthera limosa
How it was run: as §2

surinam grass = test: Test B pre/postemergence surinam grass; assay type: in vivo, Brachiaria decumbens
How it was run: as §1

wheat = test: Test B pre/postemergence wheat; assay type: in vivo, Triticum aestivum
How it was run: as §1

morningglory = test: Test B pre/postemergence morningglory; assay type: in vivo, Ipomoea hederacea
How it was run: as §1

rape = test: Test B pre/postemergence rape; assay type: in vivo, Brassica napus
How it was run: as §1

wild oat = test: Test B pre/postemergence wild oat; assay type: in vivo, Avena fatua
How it was run: as §1

corn = test: Test B pre/postemergence corn; assay type: in vivo, Zea mays
How it was run: as §1

giant foxtail = test: Test B pre/postemergence giant foxtail; assay type: in vivo, Setaria faberii
How it was run: as §1

pigweed = test: Test B pre/postemergence pigweed; assay type: in vivo, Amaranthus retroflexus
How it was run: as §1

purple nutsedge = test: Test B pre/postemergence purple nutsedge; assay type: in vivo, Cyperus rotundus
How it was run: as §1

crabgrass = test: Test B pre/postemergence crabgrass; assay type: in vivo, Digitaria sanguinalis
How it was run: as §1

bamyardgrass = test: Test B flood test barnyardgrass; assay type: in vivo, Echinochloa crus-galli
How it was run: as §2

[1] = Postemergence, Rate 125 g/ha, scale of 0 to 10 where 0 is no effect and 10 is complete control
[2] = Postemergence, Rate 250 g/ha, scale of 0 to 10, 0 is no effect, 10 is complete control
[3] = Postemergence, Rate 500 g/ha, scale of 0 to 10 where 0 is no effect and 10 is complete control
[4] = Postemergence, Rate 1000 g/ha, scale 0 to 10 (0 no effect, 10 complete control)
[5] = Preemergence, Rate 125 g/ha, scale of 0 to 10 where 0 is no effect and 10 is complete control
[6] = Preemergence, Rate 500 g/ha, scale of 0 to 10 where 0 is no effect and 10 is complete control
[7] = Rate 1000 g/ha, Preemergence, scale 0 to 10 (0 no effect, 10 complete control)
[8] = Pre-emergence, Rate 1000 g/ha, scale 0 to 10 (0 no effect, 10 complete control)
[9] = Rate 125 g/ha, under heading Pre-emergence, flood test species, visual evaluation after twelve to sixteen days
[10] = Rate 250 g/ha, Pre-emergence (flood test species), scale 0 to 10, 0 is no effect, 10 is complete control
[11] = Rate 500 g/ha, Pre-emergence section of Table B, 0 to 10 scale (0 no effect, 10 complete control)

Structure (SMILES): CCOP(=O)(Cn1c(=O)on(C(=O)N(c2ccc(Cl)cc2)C(C)C)c1=O)OCC [Compound 599]
- Plant response rating, Cocklebur (cocklebur; [1]): 0
- Cocklebur plant response rating (cocklebur; [2]): 0
- Plant response rating, Cocklebur (cocklebur; [3]): 0
- Cocklebur plant response rating (cocklebur; [4]): 0
- Cocklebur plant response rating (cocklebur; [5]): 0
- Cocklebur plant response rating (0 to 10 scale) (cocklebur; Preemergence, Rate 250 g/ha): 0
- Plant response rating, Cocklebur (cocklebur; [6]): 0
- Plant response rating, Cocklebur (cocklebur; [7]): 3
- Rice plant response rating (rice; [8]): 0
- Rice plant response rating (0 to 10 scale, 0 is no effect, 10 is complete control) (rice; [9]): 0
- Rice plant response rating (rice; [10]): 0
- Rice plant response rating (rice; [11]): 0
- S. Flatsedge plant response rating (smallflower flatsedge; [8]): 0
- S. Flatsedge plant response rating (0 to 10 scale, 0 is no effect, 10 is complete control) (smallflower flatsedge; [9]): 0
- S. Flatsedge plant response rating (smallflower flatsedge; [10]): 0
- S. Flatsedge plant response rating (smallflower flatsedge; [11]): 0
- Plant response rating, Sugarbeets (sugar beet; [1]): 0
- Sugarbeets plant response rating (sugar beet; [2]): 0
- Plant response rating, Sugarbeets (sugar beet; [3]): 0
- Sugarbeets plant response rating (sugar beet; [4]): 0
- Sugarbeets plant response rating (sugar beet; [5]): 0
- Plant response rating, Sugarbeets (sugar beet; [7]): 2
- Ducksalad plant response rating (duck salad; [8]): 0
- Ducksalad plant response rating (0 to 10 scale, 0 is no effect, 10 is complete control) (duck salad; [9]): 0
- Ducksalad plant response rating (duck salad; [10]): 0
- Ducksalad plant response rating (duck salad; [11]): 0
- Plant response rating, B. signalgrass (surinam grass; [1]): 0
- B. signalgrass plant response rating (surinam grass; [2]): 0
- Plant response rating, B. signalgrass (surinam grass; [3]): 0
- B. signalgrass plant response rating (surinam grass; [4]): 0
- B. signalgrass plant response rating (surinam grass; [5]): 2
- B. signalgrass plant response rating (0 to 10 scale, 0 is no effect, 10 is complete control) (surinam grass; Preemergence, Rate 250 g/ha): 2
- B. signalgrass plant response rating (surinam grass; [6]): 3
- Plant response rating, B. signalgrass (surinam grass; [7]): 3
- Plant response rating, Wheat (wheat; [1]): 0
- Wheat plant response rating (wheat; [2]): 0
- Plant response rating, Wheat (wheat; [3]): 0
- Wheat plant response rating (wheat; [4]): 0
- Wheat plant response rating (wheat; [5]): 0
- Plant response rating, Wheat (wheat; [6]): 0
- Plant response rating, Wheat (wheat; [7]): 0
- Plant response rating, Morningglory (morningglory; [1]): 1
- Morningglory plant response rating (morningglory; [2]): 1
- Plant response rating, Morningglory (morningglory; [3]): 6
- Morningglory plant response rating (morningglory; [4]): 6
- Morningglory plant response rating (morningglory; [5]): 0
- Plant response rating, Morningglory (morningglory; [6]): 0
- Plant response rating, Morningglory (morningglory; [7]): 0
- Plant response rating, Rape (rape; [1]): 0
- Rape plant response rating (rape; [2]): 0
- Plant response rating, Rape (rape; [3]): 0
- Rape plant response rating (rape; [4]): 0
- Rape plant response rating (rape; [5]): 0
- Plant response rating, Rape (rape; [6]): 0
- Plant response rating, Rape (rape; [7]): 3
- Plant response rating, Wild oats (wild oat; [1]): 0
- Wild oats plant response rating (wild oat; [2]): 0
- Plant response rating, Wild oats (wild oat; [3]): 0
- Wild oats plant response rating (wild oat; [4]): 0
- Wild oats plant response rating (wild oat; [5]): 0
- Plant response rating, Wild oats (wild oat; [6]): 0
- Plant response rating, Wild oats (wild oat; [7]): 0
- Plant response rating, Corn (corn; [1]): 0
- Corn plant response rating (corn; [2]): 0
- Plant response rating, Corn (corn; [3]): 0
- Corn plant response rating (corn; [4]): 0
- Corn plant response rating (corn; [5]): 0
- Corn plant response rating (0 to 10 scale) (corn; Preemergence, Rate 250 g/ha): 0
- Plant response rating, Corn (corn; [6]): 0
- Plant response rating, Corn (corn; [7]): 0
- Plant response rating, Giant foxtail (giant foxtail; [1]): 0
- Giant foxtail plant response rating (giant foxtail; [2]): 0
- Plant response rating, Giant foxtail (giant foxtail; [3]): 0
- Giant foxtail plant response rating (giant foxtail; [4]): 4
- Giant foxtail plant response rating (giant foxtail; [5]): 9
- Plant response rating, Giant foxtail (giant foxtail; [6]): 10
- Plant response rating, Giant foxtail (giant foxtail; [7]): 10
- Plant response rating, Redroot pigweed (pigweed; [1]): 0
- Redroot pigweed plant response rating (pigweed; [2]): 0
- Plant response rating, Redroot pigweed (pigweed; [3]): 0
- Redroot pigweed plant response rating (pigweed; [4]): 0
- Redroot pigweed plant response rating (pigweed; [5]): 0
- Plant response rating, Redroot pigweed (pigweed; [6]): 0
- Plant response rating, Redroot pigweed (pigweed; [7]): 4
- Plant response rating, Nutsedge (purple nutsedge; [3]): 0
- Nutsedge plant response rating (purple nutsedge; [4]): 0
- Nutsedge plant response rating (purple nutsedge; [5]): 0
- Plant response rating, Nutsedge (purple nutsedge; [6]): 0
- Plant response rating, Nutsedge (purple nutsedge; [7]): 0
- Plant response rating, Crabgrass (crabgrass; [1]): 0
- Crabgrass plant response rating (crabgrass; [2]): 0
- Plant response rating, Crabgrass (crabgrass; [3]): 0
- Crabgrass plant response rating (crabgrass; [4]): 0
- Crabgrass plant response rating (crabgrass; [5]): 3
- Plant response rating, Crabgrass (crabgrass; [6]): 8
- Plant response rating, Crabgrass (crabgrass; [7]): 8
- Barnyardgrass plant response rating (bamyardgrass; [8]): 0
- Barnyardgrass plant response rating (0 to 10 scale, 0 is no effect, 10 is complete control) (bamyardgrass; [9]): 0
- Barnyardgrass plant response rating (bamyardgrass; [10]): 0
- Barnyardgrass plant response rating (bamyardgrass; [11]): 0
